The results in this text go back to US20260232812A1, “BIFUNCTIONAL MOLECULES FOR TARGETED PROTEIN DEGRADATION” (Amphista Therapeutics Limited, priority 2022, published 2026).

The DC50 is the midpoint of the concentration-degradation curve. A higher DC50 goes with degradation only at high concentration. One may read the Dmax as the largest share of the target that was removed. Low readings indicate shallow degradation, high ones deep degradation.

Structures are written as SMILES.

Format in all cases: cell-based
Assay [1] has as its target T1, BRD9 (Homo sapiens, UniProt Q9H8M2).
T1 sequence (Q9H8M2 1-597): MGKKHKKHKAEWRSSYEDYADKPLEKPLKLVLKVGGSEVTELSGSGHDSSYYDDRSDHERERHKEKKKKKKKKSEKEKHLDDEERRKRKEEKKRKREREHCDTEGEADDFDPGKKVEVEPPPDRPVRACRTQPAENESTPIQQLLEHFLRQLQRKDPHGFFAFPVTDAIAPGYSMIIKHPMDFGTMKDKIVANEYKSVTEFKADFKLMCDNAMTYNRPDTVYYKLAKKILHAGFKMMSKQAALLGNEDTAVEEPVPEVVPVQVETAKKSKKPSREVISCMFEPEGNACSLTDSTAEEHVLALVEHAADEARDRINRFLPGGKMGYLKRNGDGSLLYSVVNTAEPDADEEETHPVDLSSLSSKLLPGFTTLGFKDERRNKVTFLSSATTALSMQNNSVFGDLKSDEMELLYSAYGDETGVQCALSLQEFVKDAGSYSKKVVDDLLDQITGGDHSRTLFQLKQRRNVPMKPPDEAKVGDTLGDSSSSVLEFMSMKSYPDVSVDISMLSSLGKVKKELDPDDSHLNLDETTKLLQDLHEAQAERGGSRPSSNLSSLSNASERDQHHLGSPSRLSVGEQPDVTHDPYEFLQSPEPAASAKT
Kind of assay: Assay Protocol 1 - Degradation of HiBit-BRD9 in HEK293. Conditions: titration up to 10 μM; for Dmax: HEK293, Assay Protocol 1: HiBit-BRD9 in HEK293, 6 h. As to the method: Assay Protocol 1—Degradation of HiBit-BRD9 in HEK293
HEK293 stably expressing LgBit and containing a HiBit insertion for BRD9 were plated in 384-well tissue culture plates at a density of 8×10^3 per well in a volume of 36 μL and incubated overnight at 37° C. and 5% CO2. Wells were treated with test compounds (11 pt titration up to 10 μM) for 6 h prior to addition of Nano-Glo® Hibit Lytic buffer (1:50 substrate and 1:100 LgBit protein) and reading on a PheraSTAR. Degradation data was plotted and analysed using Prism 8 (Graphpad).

In assay [2] the target is T1, BRD9. Kind of assay: Assay Protocol 2 - Degradation of BRD9 (IF) in MV4-11 cells. Also on record: host or cells: MV4-11. As to conditions: Assay Protocol 2: BRD9 immunofluorescence, 24 hours. As to the method: Assay Protocol 2—Degradation of BRD9 (IF)
A suspension of MV4-11 cells (ATCC CRL-9591) was prepared in phenol red-free assay media (IMDM Thermo Scientific 21056023+10% FBS ATCC 302025) and cells were seeded at 20,000 cells per well (45 μL) in sterile black poly-d-lysine coated 384 well plates (Greiner 781948). Compounds were prepared at 1000× final concentration in DMSO, diluted 1:100 in assay media, and 5 μL compound was added to each well of the cell plate. Cells were incubated for 24 hours at 37° C. with 5% CO2. All the following incubations for immunofluorescence staining were at room temperature. 15 μL of 16% PFA was added to each well (3.7% final concentration) and the cells were fixed for 15 min then washed twice with DPBS. Cells were permeabilised with 0.1% Triton X-100 for 10 min, Triton X-100 was removed, then blocked with 1% BSA in DPBS for 1 hour. Cells were stained with 25 μL anti-BRD9 E4Q3F antibody (CST 48306) diluted 1:25600 in 1% BSA in DPBS for 2-3 hours. Wells were washed twice with DPBS then incubated with 25 μL of 1% BSA containing a 1:1000 dilution of Anti-rabbit Alexa Fluor™ 647 secondary antibody (Thermo Scientific A^21244) and 1 μg/mL Hoechst nuclear counter stain (Abcam ab228551) for 1 hour. Wells were washed twice with DPBS prior to imaging on a Perkin Elmer Operetta CLS with 10× air lens. Images were processed using Harmony High-Content Imaging and Analysis Software (Perkin Elmer) and the mean contrast ratio of Alexa Fluor™ 647 in central nuclei was used to quantify BRD9 protein levels. Data was further analysed using Dotmatics software and % BRD9 remaining was calculated by normalisation to average data from high and low control wells (cells treated with DMSO or 100 nM CFT-8634 respectively).

The next assay concerns the target T2, SMARCA2 (Homo sapiens, UniProt P51531).
T2 construct: a HiBiT tag knocked in at the 3′ end of SMARCA2; host or cells: HeLa SMARCA2 HiBiT knock-in cells
Kind of assay: SMARCA2 degradation, HeLa SMARCA2 HiBiT cells (Assay Protocol 1). As to conditions: 24 hours after compound addition. On the procedure:
Hela cells with a HiBiT tag knocked in at the 3′ end of SMARCA2 were purchased from Promega (Custom product) (1). HeLa SMARCA2 HiBiT transfected cells were treated with compounds at indicated concentrations using the FlexDrop IQ (Perkin Elmer). 24 hours after compound additions abundance of HiBiT tagged protein was quantified using NanoGlo HiBiT lytic detection system (Promega, N3050). Cell viability was measured using Cell Titre Glow cell viability assay (Promega, G9243). In each case luminescence was measured on a Pherastar platereader.
In general terms: The HiBiT peptide binds its large partner to form an active luciferase.

Setting [3] is: Assay Protocol 1: HiBit-BRD9 in HEK293, 6 h.

T2 sequence (P51531 whole entry): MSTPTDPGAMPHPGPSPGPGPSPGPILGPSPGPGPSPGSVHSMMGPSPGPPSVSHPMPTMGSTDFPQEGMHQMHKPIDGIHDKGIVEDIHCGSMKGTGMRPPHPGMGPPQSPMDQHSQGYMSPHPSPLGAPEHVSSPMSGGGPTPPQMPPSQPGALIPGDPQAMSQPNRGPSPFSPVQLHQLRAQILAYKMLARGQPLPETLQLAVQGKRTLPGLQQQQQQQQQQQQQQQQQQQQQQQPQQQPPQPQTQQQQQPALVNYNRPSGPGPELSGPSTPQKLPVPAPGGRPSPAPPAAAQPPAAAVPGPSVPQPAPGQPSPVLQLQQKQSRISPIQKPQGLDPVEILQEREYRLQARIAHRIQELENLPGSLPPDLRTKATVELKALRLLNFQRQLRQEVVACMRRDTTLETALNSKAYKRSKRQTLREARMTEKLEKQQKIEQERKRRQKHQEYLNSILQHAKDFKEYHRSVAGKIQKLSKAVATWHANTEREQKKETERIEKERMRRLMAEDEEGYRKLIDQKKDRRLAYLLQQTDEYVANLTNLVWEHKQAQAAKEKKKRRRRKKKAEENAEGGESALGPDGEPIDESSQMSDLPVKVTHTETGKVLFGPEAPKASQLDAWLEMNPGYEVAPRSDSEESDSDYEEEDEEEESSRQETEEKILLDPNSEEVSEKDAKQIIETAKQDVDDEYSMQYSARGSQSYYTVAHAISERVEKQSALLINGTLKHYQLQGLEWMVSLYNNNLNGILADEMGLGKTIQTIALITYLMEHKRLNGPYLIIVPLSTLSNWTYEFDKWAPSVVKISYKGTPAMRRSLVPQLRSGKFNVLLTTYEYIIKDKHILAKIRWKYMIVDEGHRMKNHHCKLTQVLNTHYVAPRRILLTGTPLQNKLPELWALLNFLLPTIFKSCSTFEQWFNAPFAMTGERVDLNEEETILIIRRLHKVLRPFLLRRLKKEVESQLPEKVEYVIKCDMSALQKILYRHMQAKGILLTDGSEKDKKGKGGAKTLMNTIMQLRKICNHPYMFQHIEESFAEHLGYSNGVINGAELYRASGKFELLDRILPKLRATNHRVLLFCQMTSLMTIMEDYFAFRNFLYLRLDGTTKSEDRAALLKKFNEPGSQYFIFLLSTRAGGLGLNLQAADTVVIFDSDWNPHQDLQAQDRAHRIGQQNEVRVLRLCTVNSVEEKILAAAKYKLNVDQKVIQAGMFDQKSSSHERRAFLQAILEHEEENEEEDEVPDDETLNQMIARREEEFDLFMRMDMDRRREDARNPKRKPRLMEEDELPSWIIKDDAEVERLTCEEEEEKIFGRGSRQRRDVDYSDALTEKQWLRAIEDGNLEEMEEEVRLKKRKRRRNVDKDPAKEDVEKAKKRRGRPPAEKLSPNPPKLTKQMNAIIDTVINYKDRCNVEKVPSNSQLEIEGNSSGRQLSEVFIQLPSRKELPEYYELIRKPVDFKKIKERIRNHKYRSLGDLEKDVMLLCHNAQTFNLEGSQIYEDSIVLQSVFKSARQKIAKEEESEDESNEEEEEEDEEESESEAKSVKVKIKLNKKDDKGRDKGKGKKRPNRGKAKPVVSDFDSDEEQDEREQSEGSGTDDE

For `COc1ccc([C@@H]2CN(C(=O)/C(C#N)=C/c3nccs3)C[C@H]2C(=O)N2CCN(Cc3c(OC)cc(-c4cn(C)c(=O)c(C)c4C)cc3OC)CC2)cc1` [BRD9be], the “Dmax^1” value at BRD9 [1] (setting [3]) is “++ (++ = ≥50% and <70%)”. On BRD9 [2], the DC50 is below 25 nM and the “Dmax^2” value was “+++ (+++ = ≥70%)”.

In the case of `COc1cc(-c2cn(C)c(=O)c(C)c2C)cc(OC)c1CN1CCN(C(=O)/C(C#N)=C/C(C)(C)C)CC1` [BRD9a, (E/Z)-2-(4-(2,6-dimethoxy-4-(1,4,5-trimethyl-6-oxo-1,6-dihydropyridin-3-yl)benzyl)piperazine-1-carbonyl)-4,4-dimethylpent-2-enenitrile], the half-maximal degradation concentration (DC50) on BRD9 [1] (setting [3]) is 25 to 200 nM; at BRD9 [2], below 25 nM.

For `COc1cc(-c2cn(C)c(=O)c(C)c2C)cc(OC)c1CN1CC2CC(C1)N2C(=O)/C(C#N)=C/c1nccs1` (mixture of isomers) [BRD9l, (E/Z)-2-(3-(2,6-dimethoxy-4-(1,4,5-trimethyl-6-oxo-1,6-dihydropyridin-3-yl)benzyl)-3,6-diazabicyclo[3.1.1]heptane-6-carbonyl)-3-(thiazol-2-yl)acrylonitrile], on BRD9 [1] (setting [3]), the 50% degradation concentration (DC50) is above 200 nM. The Dmax at BRD9 [2] lay in the range of 30 to 50%.

For `COc1cc(-c2cn(C)c(=O)c(C)c2C)cc(OC)c1CN(C)C1CCN(C(=O)/C(C#N)=C/C23CC(C2)C3)CC1` (mixture of isomers) [BRD9ae, (E/Z)-3-(bicyclo[1.1.1]pentan-1-yl)-2-(4-((2,6-dimethoxy-4-(1,4,5-trimethyl-6-oxo-1,6-dihydropyridin-3-yl)benzyl)(methyl)amino)piperidine-1-carbonyl)acrylonitrile], the 50% degradation concentration (DC50) on BRD9 [1] (setting [3]) and at BRD9 [2] was below 25 nM each time. Moreover, the greatest degradation seen (Dmax) on BRD9 [1] and at BRD9 [2] was at least 70% throughout.

`CC(C)(C)/C=C(\C#N)C(=O)N1CCN(CC(=O)N2CCc3[nH]c4nnc(-c5ccccc5O)cc4c3C2)CC1` [SMARCA2e]: the Dmax on SMARCA2 is 50 to 65%.

As to `COc1cc(-c2cn(C)c(=O)c(C)c2C)cc(OC)c1CN(C)C1CCN(C(=O)/C(C#N)=C/c2cccc(Br)n2)CC1` [BRD9z, (E/Z)-3-(6-bromopyridin-2-yl)-2-(4-((2,6-dimethoxy-4-(1,4,5-trimethyl-6-oxo-1,6-dihydropyridin-3-yl)benzyl)(methyl)amino)piperidine-1-carbonyl)acrylonitrile], the half-maximal degradation concentration (DC50) on BRD9 [1] (setting [3]) and at BRD9 [2] was below 25 nM throughout. In addition, at BRD9 [1], the Dmax is at least 70%.

For `COc1cc(-c2cn(C)c(=O)c(C)c2C)cc(OC)c1CN1CCN(C(=O)[C@@H]2CN(C(=O)/C(C#N)=C/c3nccs3)C[C@H]2c2ccccc2)CC1` [BRD9ai], the Dmax on BRD9 [1] lay in the range of 30 to 50%; on BRD9 [2], 50 to 70%.

For the compound `CC(C)[C@@H]1CN(C(=O)/C(C#N)=C/C(C)(C)C)C[C@H]1C(=O)N[C@@H]1CCCN(c2cc(-c3ccccc3O)nnc2N)C1` [SMARCA2j], the maximal degradation (Dmax) on SMARCA2 lay within 65 to 80%.

As to `CC(C)(C)/C=C(\C#N)C(=O)N1CCN(CC(=O)N[C@@H]2CCCN(c3cc(-c4ccccc4O)nnc3N)C2)CC1` [SMARCA2b], the greatest degradation seen (Dmax) on SMARCA2 lay within 50 to 65%.

As for `N#C/C(=C\c1nccs1)C(=O)N1CCCC(C(=O)N[C@@H]2CCCN(c3cc(-c4ccccc4O)nnc3N)C2)C1` (stereo partly drawn) [SMARCA2l], the greatest degradation seen (Dmax) at SMARCA2 lay within 50 to 65%.

On to `COc1cc(-c2cn(C)c(=O)c(C)c2C)cc(OC)c1CN1CC2CCC(C1)N2C(=O)/C(C#N)=C/c1nccs1` (mixture of isomers) [BRD9q, (E/Z)-2-(3-(2,6-dimethoxy-4-(1,4,5-trimethyl-6-oxo-1,6-dihydropyridin-3-yl)benzyl)-3,8-diazabicyclo[3.2.1]octane-8-carbonyl)-3-(thiazol-2-yl)acrylonitrile], for which the DC50 on BRD9 [1] (setting [3]) and on BRD9 [2] was above 200 nM throughout. Also, on BRD9 [2], the greatest degradation seen (Dmax) fell in the range of 50 to 70%.

With `COc1cc(-c2cn(C)c(=O)c(C)c2C)cc(OC)c1CN1CCC2(CC1)CCN(C(=O)/C(C#N)=C/c1cccc(Br)n1)CC2` [BRD9r, (E/Z)-3-(6-bromopyridin-2-yl)-2-(9-(2,6-dimethoxy-4-(1,4,5-trimethyl-6-oxo-1,6-dihydropyridin-3-yl)benzyl)-3,9-diazaspiro[5.5]undecane-3-carbonyl)acrylonitrile], the 50% degradation concentration (DC50) at BRD9 [1] (setting [3]) and on BRD9 [2] was below 25 nM throughout. This compound also showed a maximal degradation (Dmax) on BRD9 [1] of at least 70%.

Regarding `COc1ccc(C2CC(C(=O)N[C@@H]3CCCN(c4cc(-c5ccccc5O)nnc4N)C3)CN(C(=O)/C(C#N)=C/c3ccn(C)n3)C2)cc1` (stereo partly drawn) [SMARCA2i], the Dmax on SMARCA2 lay in the range of 50 to 65%.

Take `CC(C)(C)/C=C(\C#N)C(=O)N1C[C@@H](C(=O)N[C@@H]2CCCN(c3cc(-c4ccccc4O)nnc3N)C2)[C@H](C2CCCCC2)C1` [SMARCA2h]: at SMARCA2, the Dmax was in the range of 65 to 80%.

Compound `COc1ccc([C@@H]2CN(C(=O)/C(C#N)=C/c3nccs3)C[C@H]2C(=O)N2CCN(Cc3c(OC)cc(-c4cn(C)c(=O)c(C)c4C)cc3OC)CC2)cc1` [BRD9ah] showed a Dmax at BRD9 [1] of 30 to 50%. Besides, at BRD9 [2], the DC50 was below 25 nM and the greatest degradation seen (Dmax) was at least 70%.

`CC(C)C1CC(C(=O)N[C@@H]2CCCN(c3cc(-c4ccccc4O)nnc3N)C2)CN(C(=O)/C(C#N)=C/C(C)(C)C)C1` (stereo partly drawn) [SMARCA2f] yielded a Dmax on SMARCA2 of 50 to 65%.

As for `COc1cc(-c2cn(C)c(=O)c(C)c2C)cc(OC)c1CN1C2CC1CN(C(=O)/C(C#N)=C/c1cccc(Br)n1)C2` (mixture of isomers) [BRD9o, (E/Z)-3-(6-bromopyridin-2-yl)-2-(6-(2,6-dimethoxy-4-(1,4,5-trimethyl-6-oxo-1,6-dihydropyridin-3-yl)benzyl)-3,6-diazabicyclo[3.1.1]heptane-3-carbonyl)acrylonitrile], the DC50 at BRD9 [1] (setting [3]) and on BRD9 [2] was below 25 nM throughout. The same compound yielded a Dmax on BRD9 [2] of at least 70%.

`CC(C)C1CC(C(=O)N[C@@H]2CCCN(c3cc(-c4ccccc4O)nnc3N)C2)CN(C(=O)/C(C#N)=C/c2nccs2)C1` (stereo partly drawn) [SMARCA2g]: the Dmax on SMARCA2 fell in the range of 65 to 80%.

Regarding `COc1cc(-c2cn(C)c(=O)c(C)c2C)cc(OC)c1CN1C2CC1CN(C(=O)/C(C#N)=C/c1nccs1)C2` (mixture of isomers) [BRD9n, (E/Z)-2-(6-(2,6-dimethoxy-4-(1,4,5-trimethyl-6-oxo-1,6-dihydropyridin-3-yl)benzyl)-3,6-diazabicyclo[3.1.1]heptane-3-carbonyl)-3-(thiazol-2-yl)acrylonitrile], at BRD9 [1] (setting [3]), the DC50 is below 25 nM. At BRD9 [2], this compound showed a DC50 below 25 nM and a Dmax of at least 70%.
